PMC8583042, “New Hybrid Compounds Combining Fragments of Usnic Acid and Thioether Are Inhibitors of Human Enzymes TDP1, TDP2 and PARP1” (International Journal of Molecular Sciences, 2021)
Where two headings read alike, the source gives them in different places.

Tests used:
[1] = target: T1, TDP1 (Homo sapiens, UniProt Q9NUW8); assay: Real-time fluorescence assay of TDP1 activity; assay type: biochemical
T1 construct: made in house; host or cells: E. coli
Source text: We tested UA and all 14 newly synthesized UA derivatives for their TDP1 inhibitory properties by measuring their IC50 values using a real-time fluorescent assay. […] Compounds 10a,b are sulfoxide analogs of 7g,h.
Human recombinant tyrosyl-DNA phosphodiesterase 1 (TDP1) and human recombinant poly(ADP-ribose)-polymerase1 (PARP1) were expressed in the E. coli system and purified as described.
The biosensor (5′-[FAM] AAC GTC AGGGTC TTC C [BHQ]-3′) was synthesized in the Laboratory of Nucleic Acid Chemistry at the Institute of Chemical Biology and Fundamental Medicine (Novosibirsk, Russia) and was used for TDP1 enzyme activity real-time fluorescence detection. The reaction mixture (200 μL) contained a TDP1 reaction buffer (50 mM Tris-HCl, pH 8.0, 50 mM NaCl, and 7 mM β-mercaptoethanol), 50 nM oligonucleotide, varied concentrations of the tested compounds, and purified TDP1 in a final concentration 1.5 nM. The reaction mixtures were incubated at a constant temperature of 26 °C in a POLARstar OPTIMA fluorimeter (BMG LABTECH, GmbH, Ortenberg, Germany). Fluorescence intensity was measured (Ex485/Em520 nm) every 1 min for 10 min. The average values of the half maximal inhibitory concentration (IC50) were determined using an eleven-point concentration response curve and calculated using MARS Data Analysis 2.0 (BMG LABTECH). The 50% inhibitory concentration (IC50) was defined as the concentration of the compound that inhibited 50% of the enzyme activity when compared to the untreated controls. At least three independent experiments were carried out to obtain the IC50 values. To determine the kinetic parameters of the TDP1 enzymatic reaction, the apparent maximum rate of enzymatic reaction (Vmax), Michaelis constant (KM), possible inhibition mechanism, and steady-state kinetic experiments were carried out at 5 fixed concentrations of the substrate, with variation in the inhibitor concentrations. The standard reaction mixtures (200 μL) contained reaction buffer components; 50 nM, 100 nM, 200 nM, 500 nM, or 1000 nM substrate; an inhibitor; and 1.5 nM recombinant human TDP1. The initial kinetic curves were obtained in three independent experiments and statistically processed in OriginPro 8.6.0 (OriginLab, Northampton, MA, USA).

[2] = EZ4U colorimetric cytotoxicity test, HEK293A; assay type: cell-based; conditions: human
Source text: (§1) The low intrinsic cytotoxicity of the additional drug component in the clinically used anticancer cocktails with traditional drugs is very important for treatment. This approach in chemotherapy can reduce the potential resulting toxic load on the body in the case of a combined action of these inhibitors on the activity of several targets. […] The effects of the tested compounds on cell survival are shown on Figure 4 and the CC50 values for three cell lines are shown in Table 1. The intrinsic cytotoxicity of a number of the studied compounds is quite high, namely, they have close IC50 values against the TDP1 and CC50 values on one or several studied cell lines. Most of the compounds generally were more toxic for the HEK293FT and HeLa cell lines than for the HEK293A cell line (Table 1 and Figure 4). The cytotoxicity of the three leader compounds, 7g, 10a, and 7h, was quite high. […] Compound 10b was one of the least toxic among the ten tested compounds.
(§2) Cytotoxicity of the compounds was examined against human cell lines HEK293A (human embryonic kidney)—WT, TDP1 deficient (Tdp1-/-), PARP1 deficient (PARP1-/-), and HeLa (cervical cancer) using an EZ4U colorimetric test (Biomedica, Vienna, Austria). The HEK293A cell line was obtained from Thermo Fisher Scientific (Waltham, MA, USA), and the HeLa cell line was obtained from the Russian Cell Culture Collection (RCCC) Institute of Cytology RAS, St. Petersburg, Russia. The cells were grown in DMEM/F12 medium (Gibco, Thermo Fisher Scientific, Waltham, MA, USA), with 1x GlutaMAX (Gibco, Thermo Fisher Scientific, Waltham, MA, USA), 50 IU/mL penicillin, 50 μg/mL streptomycin (MP Biomedicals), and in the presence of 10% fetal bovine serum (Biolot, Saint-Petersburg, Russia) in a 5% CO2 atmosphere. Cells were grown in the presence of 1% DMSO in the control wells. After the formation of a 30–50% monolayer, the tested compounds were added to the medium, and the cell culture was monitored for 3 days. The values were normalized to their own control in each case. At least three independent experiments were carried out. The 50% cytotoxic concentration (CC50) was defined as the compound concentration that reduced the cell viability by 50% when compared to the untreated controls. The compound concentration that caused 50% cell growth inhibition was determined using OriginPro 8.6.0 software (OriginLab, Northampton, MA, USA). The measurements were carried out in three independent experiments.

[3] = Colorimetric cytotoxicity test, HEK293FT; assay type: cell-based; conditions: human, HEK293FT cells, intrinsic cytotoxicity
Source text: as §1, §2

[4] = test system: HeLa cells; assay: Cytotoxicity of the combination of 10a and topotecan on HeLa cells; assay type: cell-based, human
Source text: TDP1 is able to cleave the TOP1–DNA complex, thus preventing the action of Tpc and decreasing the efficiency of this clinically used drug. The inhibition of TDP1 activity can increase the efficiency of Tpc. Next, we checked the cytotoxic effect of the combination of Tpc and examined the TDP1 inhibitors compared to Tpc alone on HeLa cells and HEK293 cells.
We observed the suppressed cell growth in the joint presence of the TDP1 inhibitor and Tpc on HeLa cells compared to Tpc alone (Figure 5). We observed the synergistic effect both when we titrated 10a with addition of fixed Tpc (1 μM or 2 μM) and vice versa when we titrated Tpc with addition of fixed 10a (5 μM). […] The CC50 value of Tpc decreased from 2 μM (only Tpc) to 0.7 μM (Tpc with 5 μM 10a).
as §2, with “The 50% cytotoxic concentration (CC50) was defined as the compound concentration that reduced the cell viability by 50% when compared to the untreated controls.” left out, “The measurements were carried out in three independent experiments.” left out

T1 sequence (Q9NUW8 whole entry): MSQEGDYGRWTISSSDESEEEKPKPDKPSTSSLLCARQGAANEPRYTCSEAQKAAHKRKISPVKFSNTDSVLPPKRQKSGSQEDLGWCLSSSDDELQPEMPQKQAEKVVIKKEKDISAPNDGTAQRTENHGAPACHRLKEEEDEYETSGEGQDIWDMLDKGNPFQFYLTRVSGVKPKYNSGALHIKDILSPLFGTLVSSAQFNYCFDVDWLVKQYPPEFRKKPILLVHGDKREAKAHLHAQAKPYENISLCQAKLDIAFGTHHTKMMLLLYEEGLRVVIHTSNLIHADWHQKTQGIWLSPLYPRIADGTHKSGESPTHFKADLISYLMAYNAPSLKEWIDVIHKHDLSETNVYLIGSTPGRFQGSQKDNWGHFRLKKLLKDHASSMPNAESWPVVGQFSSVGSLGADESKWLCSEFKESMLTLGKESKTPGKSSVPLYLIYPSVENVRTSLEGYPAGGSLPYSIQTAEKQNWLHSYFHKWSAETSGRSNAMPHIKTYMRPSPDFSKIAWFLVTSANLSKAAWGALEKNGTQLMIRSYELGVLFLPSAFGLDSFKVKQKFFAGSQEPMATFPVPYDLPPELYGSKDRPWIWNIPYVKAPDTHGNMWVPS

In the case of `CC(=O)c1c(O)c(C)c(O)c2c1OC1=CC(=O)C(C(C)=O)C(=O)C12C` (centres unmarked) [UA, usnic acid], the IC50 [1] is reported as > 50 µM and the “TDP1 inhibition (in words)” value ([1]; in the concentration range of the derivatives' IC50) is reported as “does not inhibit TDP1”.
`CC(=O)C1=C(O)C=C2Oc3c(C(=O)C[S+]([O-])c4nc5ccccc5s4)c(O)c(C)c(O)c3[C@@]2(C)C1=O` (stereo partly drawn) [10a, (2R)-4-acetyl-10-[2-(1,3-benzothiazole-2-sulfinyl)acetyl]-5,11,13-trihydroxy-2,12-dimethyl-8-oxatricyclo[7.4.0.0^2,7]trideca-1(13),4,6,9,11-pentaen-3-one] showed an IC50 ([1]; real-time fluorescent assay, 1.5 nM TDP1, 50 nM oligonucleotide, read-out: IC50 (TDP1)) of 2.1 ± 0.2 µM, a CC50 at 3 days ([2]; HEK293A cells, intrinsic cytotoxicity, 3 days, read-out: HEK293A CC50) of 20 ± 2 µM and a CC50 at 3 days ([2]; wild-type HEK293A cells, HEK293 wild type, intrinsic cytotoxicity (Figure 6), read-out: CC50) of 15 to 20 µM. For the same molecule, the CC50 at 3 days [3] was 15 ± 2 µM, the “Synergy with Tpc (in words)” value ([4]; HeLa cells) was “promising synergy” and the CC50 ([4]; Homo sapiens, HeLa, 10a titrated with fixed 2 μM Tpc, read-out: CC50 of 10a with Tpc) was 3 µM.
